# In patent US11912703B2, “6-azaindole compounds” (BRISTOL-MYERS SQUIBB COMPANY, priority 2017, dated 2024):
# Like-named read-outs stand apart in the source and are kept apart here.
# Key:
# human TLR7 = human TLR7 (Homo sapiens (Human), UniProt Q9NYK1); assay: TLR7 inhibition reporter assay (HEK-Blue SEAP); assay type: cell-based; conditions: HEK-Blue cells overexpressing human TLR7, gardiquimod 7.5 μM stimulation
# human TLR8 = human TLR8 (Homo sapiens (Human), UniProt Q9NR97); assay: TLR8 inhibition reporter assay (HEK-Blue SEAP);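 also: SEAP driven by IFN-β minimal promoter with five NF-κB and AP-1 sites, compounds tested 0.05 nM to 50 µM, 22 h incubation, inhibition relative to agonist plus DMSO wells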
# human TLR8, sequence (Q9NR97 27-1041): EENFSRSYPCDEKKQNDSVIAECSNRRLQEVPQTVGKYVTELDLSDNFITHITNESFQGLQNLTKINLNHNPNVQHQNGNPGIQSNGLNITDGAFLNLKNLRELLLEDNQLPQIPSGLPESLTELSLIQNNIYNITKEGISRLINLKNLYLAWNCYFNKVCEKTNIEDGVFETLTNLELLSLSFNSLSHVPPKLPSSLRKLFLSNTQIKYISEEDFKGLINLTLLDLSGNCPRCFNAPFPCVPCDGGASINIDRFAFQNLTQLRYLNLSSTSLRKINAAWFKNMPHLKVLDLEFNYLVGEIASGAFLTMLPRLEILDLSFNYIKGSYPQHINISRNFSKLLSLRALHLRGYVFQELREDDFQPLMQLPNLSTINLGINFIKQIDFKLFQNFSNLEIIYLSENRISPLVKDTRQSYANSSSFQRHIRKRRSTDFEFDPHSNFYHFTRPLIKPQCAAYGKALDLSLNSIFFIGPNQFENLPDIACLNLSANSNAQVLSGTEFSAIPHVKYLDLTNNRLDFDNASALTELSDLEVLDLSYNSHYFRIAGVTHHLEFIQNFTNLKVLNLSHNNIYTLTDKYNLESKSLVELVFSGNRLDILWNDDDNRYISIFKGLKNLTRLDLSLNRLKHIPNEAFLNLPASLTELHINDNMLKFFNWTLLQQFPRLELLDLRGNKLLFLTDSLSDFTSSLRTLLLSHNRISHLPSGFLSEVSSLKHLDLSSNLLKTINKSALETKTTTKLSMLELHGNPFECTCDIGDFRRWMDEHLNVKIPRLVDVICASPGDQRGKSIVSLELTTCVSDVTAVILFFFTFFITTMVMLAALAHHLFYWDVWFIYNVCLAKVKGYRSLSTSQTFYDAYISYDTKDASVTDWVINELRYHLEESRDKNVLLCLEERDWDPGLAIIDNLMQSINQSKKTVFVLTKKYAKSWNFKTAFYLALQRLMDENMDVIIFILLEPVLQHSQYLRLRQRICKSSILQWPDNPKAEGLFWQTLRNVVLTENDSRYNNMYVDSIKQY
# human TLR9 = human TLR9 (Homo sapiens (Human), UniProt Q9NR96); assay: TLR9 inhibition reporter assay (HEK-Blue SEAP);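 also: SEAP driven by IFN-β minimal promoter carrying five NF-κB and AP-1 sites, 22 h at 37 °C, compounds 0.05 nM–50 µM, inhibition scaled between agonist-plus-DMSO and reference-inhibitor wells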
# human TLR9, sequence (Q9NR96 26-1032): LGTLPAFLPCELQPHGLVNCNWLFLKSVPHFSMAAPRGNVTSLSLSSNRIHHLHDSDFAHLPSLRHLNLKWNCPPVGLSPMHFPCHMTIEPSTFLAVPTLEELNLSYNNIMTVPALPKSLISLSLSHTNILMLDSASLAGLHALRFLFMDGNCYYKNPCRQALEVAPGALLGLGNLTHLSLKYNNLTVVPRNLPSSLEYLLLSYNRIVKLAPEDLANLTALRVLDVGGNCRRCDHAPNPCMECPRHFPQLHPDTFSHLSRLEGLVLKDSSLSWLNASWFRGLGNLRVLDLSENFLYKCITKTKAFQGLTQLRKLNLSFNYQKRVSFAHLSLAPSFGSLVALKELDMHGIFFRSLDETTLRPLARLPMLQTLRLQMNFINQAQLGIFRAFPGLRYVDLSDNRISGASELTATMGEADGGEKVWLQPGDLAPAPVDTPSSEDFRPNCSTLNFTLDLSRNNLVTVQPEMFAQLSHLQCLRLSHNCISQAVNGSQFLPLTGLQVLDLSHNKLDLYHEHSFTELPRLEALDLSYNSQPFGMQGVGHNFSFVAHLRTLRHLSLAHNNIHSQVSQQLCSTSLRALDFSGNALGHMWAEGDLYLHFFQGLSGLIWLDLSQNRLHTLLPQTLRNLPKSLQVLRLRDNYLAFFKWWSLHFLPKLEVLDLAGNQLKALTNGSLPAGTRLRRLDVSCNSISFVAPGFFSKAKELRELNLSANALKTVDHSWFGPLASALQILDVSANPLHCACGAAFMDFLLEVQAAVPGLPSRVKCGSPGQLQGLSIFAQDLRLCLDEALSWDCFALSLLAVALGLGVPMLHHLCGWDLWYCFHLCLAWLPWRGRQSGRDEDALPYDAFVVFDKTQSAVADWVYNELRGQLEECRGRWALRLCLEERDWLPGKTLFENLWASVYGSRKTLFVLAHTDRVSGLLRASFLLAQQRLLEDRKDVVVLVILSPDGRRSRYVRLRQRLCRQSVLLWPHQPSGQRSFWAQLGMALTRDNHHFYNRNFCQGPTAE
# [1] = read-out: TLR8 IC50; HEK-Blue cells overexpressing human TLR8, R848 15.9 μM stimulation, SEAP reporter
# [2] = read-out: TLR9 IC50; HEK-Blue cells overexpressing human TLR9, ODN2006 5 nM stimulation, SEAP reporter
# [3] = read-out: TLR8 IC50; HEK-Blue cells overexpressing human TLR8; R848 15.9 μM stimulation; SEAP reporter
# [4] = read-out: TLR9 IC50; HEK-Blue cells overexpressing human TLR9; ODN2006 5 nM stimulation; SEAP reporter
# human TLR7, sequence (Q9NYK1 27-1049): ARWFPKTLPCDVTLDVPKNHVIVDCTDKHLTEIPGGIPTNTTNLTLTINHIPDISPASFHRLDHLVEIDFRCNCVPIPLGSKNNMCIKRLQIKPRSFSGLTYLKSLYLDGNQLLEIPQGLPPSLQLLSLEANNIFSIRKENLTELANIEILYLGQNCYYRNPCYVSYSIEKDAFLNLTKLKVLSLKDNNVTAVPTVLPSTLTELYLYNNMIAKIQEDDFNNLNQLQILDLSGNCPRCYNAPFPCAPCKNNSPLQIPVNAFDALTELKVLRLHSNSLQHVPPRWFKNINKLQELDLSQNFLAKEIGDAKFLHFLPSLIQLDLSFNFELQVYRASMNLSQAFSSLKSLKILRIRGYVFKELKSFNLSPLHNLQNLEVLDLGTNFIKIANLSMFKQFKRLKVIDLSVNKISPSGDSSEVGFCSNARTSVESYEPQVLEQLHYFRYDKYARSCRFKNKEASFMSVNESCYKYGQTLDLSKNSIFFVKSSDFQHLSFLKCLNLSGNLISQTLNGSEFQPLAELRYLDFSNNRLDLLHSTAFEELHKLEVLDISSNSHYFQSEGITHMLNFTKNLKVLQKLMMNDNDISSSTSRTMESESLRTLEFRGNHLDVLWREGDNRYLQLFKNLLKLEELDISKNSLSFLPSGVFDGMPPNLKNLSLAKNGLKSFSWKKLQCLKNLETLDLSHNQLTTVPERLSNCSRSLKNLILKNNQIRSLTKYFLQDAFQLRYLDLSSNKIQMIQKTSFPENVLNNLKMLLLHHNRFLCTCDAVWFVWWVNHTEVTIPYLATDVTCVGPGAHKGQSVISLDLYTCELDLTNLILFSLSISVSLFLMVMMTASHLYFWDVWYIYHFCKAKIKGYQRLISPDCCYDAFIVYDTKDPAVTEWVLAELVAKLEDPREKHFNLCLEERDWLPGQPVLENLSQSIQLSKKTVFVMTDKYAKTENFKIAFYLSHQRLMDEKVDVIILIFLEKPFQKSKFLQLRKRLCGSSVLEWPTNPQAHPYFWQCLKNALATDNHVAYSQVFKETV
Compound,IC50 (human TLR7),IC50 (human TLR8; [1]),IC50 (human TLR9; [2]),IC50 (human TLR8; [3]),IC50 (human TLR9; [4]),IC50 (human TLR9)
COc1cc(-c2[nH]c3cnc(N4CC5(C4)CN(C4CCN(C(C)C)CC4)C5)c(F)c3c2C(C)C)cn2ncnc12 [Example 377],16 nM,16 nM,1410 nM,,,
COc1cc(-c2[nH]c3cnc(N4CC5(C4)CN(C4CCC4)C5)c(F)c3c2C(C)C)cn2ncnc12 [Example 381],9.9 nM,11 nM,2580 nM,,,
"Cc1c(-c2[nH]c3cnc(N4CC5(CNC5)C4)c(F)c3c2C(C)C)cn2ncnc2c1C [Example 392, 6-(4-fluoro-3-isopropyl-5-(2,6-diazaspiro[3.3]heptan-2-yl)-1H-pyrrolo[2,3-c]pyridin-2-yl)-7,8-dimethyl-[1,2,4]triazolo[1,5-a]pyridine]",24 nM,13 nM,8840 nM,,,
Cc1c(-c2[nH]c3cnc(N4CC5(C4)CN(C(C)C)C5)c(F)c3c2C(C)C)cn2ncnc2c1C [Example 403],25 nM,1.7 nM,9260 nM,,,
COc1cc(-c2[nH]c3cnc(N4CCN(CC(C)(C)O)CC4)c(F)c3c2C(C)C)cn2ncnc12 [Example 364],2.7 nM,0.38 nM,8700 nM,,,
CCN(C)C1CCN(c2ncc3[nH]c(-c4cc(OC)c5ncnn5c4)c(C(C)C)c3c2F)CC1 [Example 102],0.34 nM,0.24 nM,2820 nM,,,
COc1cc(-c2[nH]c3cnc(C4CCC(NCC(C)(C)C)CC4)c(F)c3c2C(C)C)cn2ncnc12 (stereo not drawn) [Example 162],1.3 nM,1 nM,2150 nM,,,
CCN(C)C1CCC(c2cc3c(C(C)C)c(-c4cc(OC)c5ncnn5c4)[nH]c3cn2)C1 (stereo not drawn) [Example 177],8.7 nM,4 nM,549 nM,,,
Cc1cc(-c2[nH]c3cnc(N4CCC(N5CCC5)CC4)c(F)c3c2C(C)C)cn2ncnc12 [Example 70],0.23 nM,0.78 nM,4000 nM,,,
CCN(C)C1CCC(c2ncc3[nH]c(-c4cc(C)c5ncnn5c4)c(C(C)C)c3c2F)CC1 (stereo not drawn) [Example 199],0.83 nM,2 nM,1210 nM,,,
COc1cc(-c2[nH]c3cnc(C4CCN(C(=O)CN(C)C)CC4)cc3c2C(C)C)cn2ncnc12 [Example 343],28 nM,190 nM,217 nM,,,
CNC(=O)CN1CCN(c2cc3c(C(C)C)c(-c4cc(C)c5ncnn5c4)[nH]c3cn2)CC1 [Example 302],1590 nM,> 3120 nM,> 50000 nM,,,
Cc1cc(-c2[nH]c3cnc(C4CCC(N5CCC5)CC4)c(F)c3c2C(C)C)cn2ncnc12 (stereo not drawn) [Example 262],1.3 nM,4.2 nM,1330 nM,,,
Cc1cc(-c2[nH]c3cnc(N4CCC(NC5CCOCC5)CC4)c(F)c3c2C(C)C)cn2ncnc12 [Example 220],0.74 nM,,,0.35 nM,4540 nM,
Cc1cc(-c2[nH]c3cnc(N4CCC(NC(C)C)CC4)c(F)c3c2C(C)C)cn2ncnc12 [Example 219],0.85 nM,,,0.56 nM,1890 nM,
COc1cc(-c2[nH]c3cnc(N4CCC(N(C)C(C)C)CC4)c(C)c3c2C(C)C)cn2ncnc12 [Example 86],0.37 nM,0.43 nM,1130 nM,,,
COc1cc(-c2[nH]c3cnc(N4CCN(C5CCOCC5)C[C@H]4C)c(F)c3c2C(C)C)cn2ncnc12 [Example 452],4.8 nM,,,11 nM,12600 nM,
Cc1c(-c2[nH]c3cnc(C4CCN(CC(=O)N(C)C)CC4)cc3c2C(C)C)cn2ncnc2c1C [Example 31],2.1 nM,6.2 nM,132 nM,,,
CCN(C)C1CCC(c2cc3c(C(C)C)c(-c4cc(OC)c5ncnn5c4)[nH]c3cn2)C1 (stereo not drawn) [Example 248],5.7 nM,6.8 nM,396 nM,,,
Cc1cc(-c2[nH]c3cnc(C4CCN(C5CCOCC5)CC4)c(F)c3c2C(C)C)cn2ncnc12 [Example 187],2.1 nM,2 nM,1530 nM,,,
Cc1c(-c2[nH]c3cnc(N4CCN(S(C)(=O)=O)CC4)c(F)c3c2C(C)C)cn2ncnc2c1C [Example 425],13 nM,17 nM,> 50000 nM,,,
Cc1c(-c2[nH]c3cnc(N4CC5(C4)CN(C4CCN(C(C)C)CC4)C5)c(F)c3c2C(C)C)cn2ncnc2c1C [Example 406],8.4 nM,4.8 nM,937 nM,,,
COc1cc(-c2[nH]c3cnc(N4CCC(N(C)C)CC4)c(F)c3c2C(C)C)cn2ncnc12 [Example 218],0.82 nM,,,0.6 nM,4740 nM,
COc1cc(-c2[nH]c3cnc(C4CCN(CC(=O)N(C)C)CC4)c(F)c3c2C(C)C)cn2ncnc12 [Example 34],2.5 nM,2 nM,1510 nM,,,

Compound,IC50 (human TLR7),IC50 (human TLR8; [1]),IC50 (human TLR9; [2]),IC50 (human TLR8; [3]),IC50 (human TLR9; [4]),IC50 (human TLR9)
COc1cc(-c2[nH]c3cnc(C4CCC(NC5CCOC5)CC4)cc3c2C(C)C)cn2ncnc12 (stereo not drawn) [Example 342],3.8 nM,8.3 nM,224 nM,,,
COc1cc(-c2[nH]c3cnc(N4CCC(N(C)C(C)C)CC4)c(F)c3c2C(C)C)cn2ncnc12 [Example 101],1.2 nM,0.66 nM,4140 nM,,,
COc1cc(-c2[nH]c3cnc(N4CCN(CC(N)=O)C[C@H]4C)c(F)c3c2C(C)C)cn2ncnc12 [Example 447],11 nM,32 nM,> 50000 nM,,,
COc1cc(-c2[nH]c3cnc(N4CCN(CC(=O)N(C)C)CC4)cc3c2C(C)C)cn2ncnc12 [Example 300],13 nM,1.6 nM,11900 nM,,,
COCCN1CCC(c2ncc3[nH]c(-c4cc(C)c5ncnn5c4)c(C(C)C)c3c2F)CC1 [Example 183],1.8 nM,3.4 nM,2450 nM,,,
COc1cc(-c2[nH]c3cnc(N4CCNC[C@H]4C)c(F)c3c2C(C)C)cn2ncnc12 [compound 354],1.6 nM,9.9 nM,3430 nM,,,
CCCN1CC2(C1)CN(c1ncc3[nH]c(-c4cc(OC)c5ncnn5c4)c(C(C)C)c3c1F)C2 [Example 380],5.6 nM,7.8 nM,1480 nM,,,
Cc1c(-c2[nH]c3cnc(C4CCC(NC56CC(C5)C6)CC4)c(F)c3c2C(C)C)cn2ncnc2c1C (stereo not drawn) [Example 238],62 nM,21 nM,28500 nM,,,
Cc1c(N2CCC(N(C)CCC#N)CC2)ncc2[nH]c(-c3cc(C)c4ncnn4c3)c(C(C)C)c12 [Example 280],1.3 nM,1.2 nM,2500 nM,,,
Cc1c(-c2[nH]c3cnc(C4CCC(NC5COC5)CC4)c(F)c3c2C(C)C)cn2ncnc2c1C (stereo not drawn) [Example 174],0.78 nM,0.67 nM,7720 nM,,,
Cc1cc(-c2[nH]c3cnc(C4CCC(NC5(C)COC5)CC4)c(F)c3c2C(C)C)cn2ncnc12 (stereo not drawn) [Example 81],0.15 nM,0.61 nM,2170 nM,,,
COc1cc(-c2[nH]c3cnc(N4CCC(NC5COC5)CC4)cc3c2C(C)C)cn2ncnc12 [Example 320],4.4 nM,2 nM,3010 nM,,,
Cc1cc(-c2[nH]c3cnc(C4CCN(C(C)C)CC4)c(F)c3c2C(C)C)cn2ncnc12 [Example 212],1.6 nM,3.8 nM,2080 nM,,,
Cc1cc(-c2[nH]c3cnc(C4CCN(C5COC5)CC4)cc3c2C(C)C)cn2ncnc12 [Example 341],3.2 nM,21 nM,1030 nM,,,
COc1cc(-c2[nH]c3cnc(N4CCN(CC(=O)N5CCOCC5)C[C@H]4C)c(F)c3c2C(C)C)cn2ncnc12 [Example 448],28 nM,22 nM,> 50000 nM,,,
COc1cc(-c2[nH]c3cnc(C4CCC(N5CC6(COC6)C5)CC4)c(C)c3c2C(C)C)cn2ncnc12 (stereo not drawn) [Example 245],6.3 nM,47 nM,257 nM,,,
CCN(C)C1CCC(c2cc3c(C(C)C)c(-c4cc(OC)c5ncnn5c4)[nH]c3cn2)C1 (stereo not drawn) [Example 249],12 nM,12 nM,1450 nM,,,
Cc1cc(-c2[nH]c3cnc(C4CCN(CCS(C)(=O)=O)CC4)c(F)c3c2C(C)C)cn2ncnc12 [Example 149],3.6 nM,5.1 nM,13100 nM,,,
Cc1c(-c2[nH]c3cnc(N4CCN(CC5(C)COC5)CC4)c(F)c3c2C(C)C)cn2ncnc2c1C [Example 410],15 nM,1.3 nM,> 50000 nM,,,
COc1cc(-c2[nH]c3cnc(N4CCC(N(C)C5COC5)CC4)c(F)c3c2C(C)C)cn2ncnc12 [Example 104],3.6 nM,1.7 nM,5300 nM,,,
"Cc1c(-c2[nH]c3cnc(N4CC5(CN(C(=O)CN6CCOCC6)C5)C4)c(F)c3c2C(C)C)cn2ncnc2c1C [Example 399, 1-(6-(2-(7,8-dimethyl-[1,2,4]triazolo[1,5-a]pyridin-6-yl)-4-fluoro-3-isopropyl-1H-pyrrolo[2,3-c]pyridin-5-yl)-2,6-diazaspiro[3.3]heptan-2-yl)-2-morpholinoethan-1-one]",409 nM,4.1 nM,,,,> 50000 nM
CCN(C)C1CCC(c2ncc3[nH]c(-c4cc(C)c5ncnn5c4)c(C(C)C)c3c2F)CC1 (stereo not drawn) [Example 163],0.39 nM,0.87 nM,1320 nM,,,
Cc1c(-c2[nH]c3cnc(N4CCN(CC5CC5)C[C@H]4C)c(F)c3c2C(C)C)cn2ncnc2c1C [Example 459],1.6 nM,,,0.54 nM,13800 nM,
CCN(C)C1CCC(c2ncc3[nH]c(-c4cn5ncnc5c(C)c4C)c(C(C)C)c3c2F)CC1 (stereo not drawn) [Example 263],1.9 nM,4.1 nM,5650 nM,,,
